Marks after values point to notes of the source that are not given here. Where no end group is shown, it is not given here.
Columns and labels:
Assay type in all cases: in vivo, mouse
[1] = system: transgenic mice with myocardial-specific expression of PR39; experiment: Heart size, myocardial mass and myocyte cross-sectional area after induction of PR39 expression
Description: (§1) To monitor PR39 expression, β-galactosidase was expressed bicistronically.
Six weeks after induction of PR39 expression, a large increase in the heart size was observed that was attributable to increased ventricular wall thickness and a mild increase in the left ventricle chamber size.
(§2) Full-length porcine PR39 cDNA was inserted into a tetracycline-responsive vector system and a tetracycline transactivator was placed under transcriptional control of an α-myosin heavy chain promoter. The resulting tetracycline-responsive system was microinjected into fertilized mouse eggs. PCR analysis of genomic DNA from mouse tail tissue confirmed integration into the mouse genome. Independent transgenic lines were established and used for the analysis disclosed herein.

[2] = system: transgenic mice with myocardial-specific expression of PR39; experiment: Echocardiographic and pressure-volume loop analysis of myocardial function
Description: as §1
To determine whether this endothelial-driven myocardial hypertrophy affected cardiac performance, echocardiographic and pressure-volume loop analysis of myocardial function was performed following induction of PR39 expression. In agreement with morphologic observations, heart expressing PR39 had somewhat larger left ventricular end-diastolic volume and end-diastolic diameter (Table 2). There was a significant enhancement of systolic performance as indicated by decreased left ventricle end-systolic volume and increases in the […], +dP/dT, maximal-generated left ventricle pressure and cardiac output (Table 2). Unexpectedly, there was also a significant improvement in diastolic function as indicated by reduced tau and −dP/dt (Table 2).
To evaluate the robustness of the observed increase in myocardial size and functional improvement, PR39 expression was shut off six weeks after its induction and the mice were re-examined three weeks later. Both the increase in the myocardial mass and improvements in the systolic and diastolic function were maintained at that time.
as §2

[3] = system: transgenic mice with myocardial-specific expression of PR39; experiment: Endothelial cell mass (I131-labeled anti-PECAM antibody perfusion) and direct capillary counting in PR39 transgenic mice
Description: as §1
Three weeks after induction of PR39 expression in 6-8 week-old mice, a significant increase in the endothelial cell mass was observed as determined by in vivo perfusion with an I^131-labeled anti-PECAM antibody and direct capillary counting (Table 1).
as §2

[4] = system: endothelial cells and cardiac myocytes; experiment: Immunocytochemical staining with anti-Ki67 antibody (proliferation); settings: after induction of PR39 expression
Description: (§3) To gain further insight into the nature of the hypertrophy process, expression of myocyte hypertrophy markers was examined. […] These findings are consistent with an increase in endothelial cell mass, […] an increase in cardiac size, largely driven by myocyte hypertrophy accompanied by an induction of a typical hypertrophic response.

[5] = system: ANF, βMHC and skeletal α-actin gene expression; experiment: Expression of myocyte hypertrophy markers; settings: 6 weeks after PR39 expression induction (not at 3 weeks)
Description: as §3

[6] = six weeks after induction of PR39 expression
[7] = six weeks following induction of PR39 expression
[8] = six weeks induction of PR39 expression followed by 3 weeks repression

PR39: Angiogenic proline/arginine-rich peptide; full-length porcine PR39 cDNA expressed myocardial-specifically in tetracycline-regulated transgenic mice (mature peptide SEQ ID NO:3) (RRRPRPPYLPRPRPPPFFPPRLPPRIPPGFPPRFPPRFP-NH2; listed as Sus scrofa)
Increase in myocardial mass ([1]; cardiac-specific overexpression of PR39): 50% | Heart size [1, 6]: 0.15±0.01 gram | Myocyte area increase (cross-sectional area of enzymatically dispersed cardiac myocytes) [1, 6]: 30% | Heart enlargement ([1]; six weeks after induction of PR39 expression, vs non-transgenic mice): 35% | Heart size after repression of PR39 expression ([1]; six weeks induction, then 3 weeks repression of PR39 expression): remained unchanged | Increase in myocardial mass and improvements in systolic and diastolic function after shut-off ([2]; PR39 expression shut off six weeks after induction, re-examined three weeks later): maintained | Left Ventricle Mass [2, 7]: 74 ± 1.1^a mg | Left Ventricle internal dimension systolic [2, 7]: 2.28 ± 0.20^c mm | Cardiac output [2, 8]: 9046 ± 239^a μL/minute | Ejection fraction [2, 8]: 85.06 ± 0.76^a % | End diastolic pressure [2, 8]: 7.17 ± 0.17^a mmHg | End diastolic volume [2, 8]: 18.78 ± 0.31^a μL | End systolic pressure [2, 8]: 70.49 ± 0.99^b mmHg | End systolic volume [2, 8]: 3.26 ± 0.15^a μL | Maximum dP/dt [2, 8]: 8809 ± 167^a mmHg/second | Maximum pressure [2, 8]: 92.26 ± 0.54^a mmHg | Maximum volume [2, 8]: 20.15 ± 0.29^a μL | Minimum dP/dt [2, 8]: −7503 ± 123^a mmHg/second | Minimum pressure [2, 8]: 3.79 ± 0.15^a mmHg | Minimum volume [2, 8]: 2.86 ± 0.13^a μL | Stroke volume [2, 8]: 17.29 ± 0.32^a μL | Tau-w [2, 8]: 6.0 ± 0.1^a msec | Capillary density per gram of myocardial tissue [3, 6]: returned to values seen in control mice | Capillary Density (Capillary/50 μm^2) ([3]; three weeks after induction of PR39 expression in 6-8 week-old mice): 5.90 ± 0.12 Capillary/50 μm^2 | Anti-PECAM (μg antibody/gram tissue) ([3]; three weeks after induction of PR39 expression in 6-8 week-old mice, endothelial cell mass): 0.52 ± 0.07 μg antibody/gram tissue | Proliferation of endothelial cells between myocyte bundles (anti-Ki67) [4]: increased proliferation | Proliferation of cardiac myocytes (anti-Ki67) ([4]; multiple sections): no proliferation | ANF, βMHC and skeletal α-actin gene expression [5]: marked increase

From patent publication US7939499B2, “Method for increasing cardiac mass and performance” (Trustees of Dartmouth College, priority 2005, dated 2011)
